Results: US5723747A, “Wax esters in transformed plants” (Calgene, Inc., priority 1994, dated 1998)
Read-outs that look alike come from different tables or passages of the source.

Tests used:
[1] = target: T1, jojoba acyl-CoA reductase (Simmondsia chinensis, UniProt Q9XGY7, S459G); assay: biochemical; settings: for Reductase Activity, Acyl-CoA (10 μM): acyl-CoA as substrate at 10 μM, 0.5M NaCl, pH 7.5; for effect of end-products and cofactors on reductase activity (in words): CoA and NADP+ at millimolar concentrations; for effect of salt on reductase activity (in words): 0.5M monobasic salts, divalent salts at 0.167M and 0.5M
T1 sequence (Q9XGY7 whole entry S459G): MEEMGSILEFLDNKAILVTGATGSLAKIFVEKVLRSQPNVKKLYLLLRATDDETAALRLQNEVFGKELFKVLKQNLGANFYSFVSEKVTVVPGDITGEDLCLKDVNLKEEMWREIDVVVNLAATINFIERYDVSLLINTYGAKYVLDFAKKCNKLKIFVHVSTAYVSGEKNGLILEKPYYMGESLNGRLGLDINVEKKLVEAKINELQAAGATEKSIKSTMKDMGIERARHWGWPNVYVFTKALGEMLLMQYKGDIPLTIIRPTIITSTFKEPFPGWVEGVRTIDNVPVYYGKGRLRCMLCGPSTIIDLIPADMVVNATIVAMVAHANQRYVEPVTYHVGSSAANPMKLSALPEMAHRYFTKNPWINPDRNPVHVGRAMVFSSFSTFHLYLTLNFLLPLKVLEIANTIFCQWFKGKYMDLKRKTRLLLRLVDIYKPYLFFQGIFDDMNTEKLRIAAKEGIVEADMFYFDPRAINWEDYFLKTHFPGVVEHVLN
Protocol: (§1) […] The incubation mixture also contains 10% w/v glycerol, 1 mM DTT, and is buffered with 50 mM HEPES (4-[2-hydroxyethyl]-1-piperazineethane-sulfonic acid) (HEPES, here and as referred to hereafter is added from a 1M stock solution adjusted to pH 7.5).
(§2) […] The assay is terminated by placing the assay tube on ice and immediately adding 0.25 ml isopropanol:acetic acid (5:1 v/v). Unlabeled wax esters (0.1 mg) and oleyl alcohol (0.1 mg) are added as carriers. The [^14 C] lipids are extracted by the scaled-down protocol of Hara and Radin (Anal. Biochem. (1978) 90:420). Six ml of hexane/isopropanol (3:2, v/v) is added to the terminated assay. The sample is vortexed, 2 ml of aqueous sodium sulphate solution (5.5% w/v) is added, and the sample is again vortexed.
(§3) The incubation mixture also contains 10% w/v glycerol, 1 mM DTT, and is buffered with 50 mM HEPES (4-[2-hydroxyethyl]-1-piperazineethane-sulfonic acid) (HEPES, here and as referred to hereafter is added from a 1M stock solution adjusted to pH 7.5). […]
as §2, with “(4:1” for “(5:1”, “(25 μg),” for “(0.1 mg) and”, “(50 μg), and oleic acid (50 μg)” for “(0.1 mg)”, “Four” for “Six”, “(6.7%” for “(5.5%”
(§4) Following addition of the sodium sulphate and vortexing the sample, the upper organic phase is removed and the lower aqueous phase is washed with 4 ml hexane/isopropanol (7:2 v/v). The organic phases are pooled and evaporated to dryness under nitrogen. The lipid residue is resuspended in a small volume of heptane, and an aliquot is assayed for radioactivity by liquid scintillation counting. The remainder of the sample can be used either for TLC analysis of the labeled classes, or for derivatization to cleave the wax esters, and thereby give a measure of total alcohol produced.
(§5) For lipid class analysis the sample is applied to a silica TLC plate, and the plate is developed in hexane/diethyl ether/acetic acid (such as 80:20:1 or 70:30:1 v/v/v). The distribution of radioactivity between the lipid classes, largely wax esters (when ligase is present, as in the microsomal membrane preparation assay), free fatty acids, fatty alcohols, and polar lipids at the origin, is measured using an AMBIS radioanalytic imaging system (AMBIS Systems Inc., San Diego, Calif.). If necessary the individual lipid classes can be recovered from the TLC plate for further analysis.
(§6) Following addition of the sodium sulfate and vortexing the sample, a known percentage of the organic phase is removed and counted via liquid scintillation counting. This calculation is used to estimate the total counts in the organic phase.

[2] = target: T2, jojoba wax synthase (Simmondsia chinensis, UniProt Q9XGY6); assay: Wax synthase assay, microsomal membrane fraction; format: biochemical; settings: for Wax synthase Activity, Acyl Group: 80 μM acyl-CoA substrate, 100 μM radiolabeled oleyl alcohol; for Wax synthase Activity, Alcohol Group: 100 μM alcohol substrate, 40 μM radiolabeled eicosenoyl-CoA
T2 construct: added to a microsomal membrane fraction having wax synthase activity; from tissue; host or cells: jojoba microsomal membrane fraction
T2 sequence (Q9XGY6 1-352): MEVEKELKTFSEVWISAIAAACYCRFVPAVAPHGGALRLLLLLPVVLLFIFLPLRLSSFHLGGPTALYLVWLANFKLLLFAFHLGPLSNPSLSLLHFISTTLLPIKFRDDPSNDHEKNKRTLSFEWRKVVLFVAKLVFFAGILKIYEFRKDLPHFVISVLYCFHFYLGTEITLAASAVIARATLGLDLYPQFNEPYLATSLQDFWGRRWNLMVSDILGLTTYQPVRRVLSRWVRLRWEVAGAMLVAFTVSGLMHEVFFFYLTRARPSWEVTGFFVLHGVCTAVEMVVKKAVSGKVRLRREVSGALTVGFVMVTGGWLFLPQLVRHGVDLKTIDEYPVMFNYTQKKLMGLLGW
Protocol: Wax synthase activity is measured by incubation of 40 μM [1-^14 C]acyl-CoA (usually palmitoyl-CoA, sp. act. 5.1-5.6 mCi/mmol) and 200 μM oleyl alcohol with the sample to be assayed in a total volume of 0.25 ml. The incubation mixture also contains 20% w/v glycerol, 1 mM DTT, 0.5M NaCl and is buffered with 25 mM HEPES (4-[2-hydroxyethyl]-1-piperazineethane-sulfonic acid).
A substrate mixture is prepared in a glass vial, with oleyl alcohol being added immediately before use, and is added to samples.
Acyl-CoA and alcohol substrates having varying carbon chain lengths and degrees of unsaturation were added to a microsomal membrane fraction having wax synthase activity to determine the range of substrates recognized by the jojoba wax synthase. Wax synthase activity was measured as described in Example 1, with acyl specificity measured using 80 μM of acyl-CoA substrate and 100 μM of radiolabeled oleyl alcohol. Alcohol specificity was measured using 100 μM of alcohol substrate and 40 μM of radiolabeled eicosenoyl-CoA.

[3] = target: jojoba acyl-CoA reductase (Simmondsia chinensis, UniProt Q9XGY7); assay: biochemical
Sequence of jojoba acyl-CoA reductase (Simmondsia chinensis, UniProt Q9XGY7) (Q9XGY7 whole entry S459G): as the sequence (Q9XGY7 whole entry S459G) above
Protocol: as §1, §2, §3
as §2, with “(4:1” for “(5:1”, “(25 μg),” for “(0.1 mg) and”, “(50 μg), and oleic acid (50 μg)” for “(0.1 mg)”, “Four” for “Six”, “(6.7%” for “(5.5%”
as §4, §5, §6

[4] = target: T3, acyl CoA: alcohol acyl transferase (Simmondsia chinensis, UniProt Q9XGY6); assay: Acyl CoA: alcohol acyl transferase activity in the membrane preparation; format: biochemical, jojoba; settings: 0.3% w/v in the assay mixture
T3 construct: activity which is also present in the membrane preparation; from tissue; host or cells: microsomal membrane preparation (jojoba embryos)
T3 sequence (Q9XGY6 1-352): T2 sequence (Q9XGY6 1-352)
Source text: If it is desired to inhibit an acyl CoA: alcohol acyl transferase activity which is also present in the membrane preparation (and which consumes the product of the reductase reaction), 0.3% w/v CHAPS is included in the assay mixture.

[5] = target: T1, jojoba acyl-CoA reductase; parameters: The microsomal membrane preparation described above is used for further characterization of the reductase enzyme; from tissue; host or cells: jojoba embryos (about 90 to 110 days postanthesis), microsomal membrane preparation; settings: previously shown, Pollard et al.; cited from earlier work
[6] = palmitoyl thioesters as acyl substrates

O[C@H](CS)[C@H](O)CS (racemic) [DTT, Dithiothreitol]
effect of effector on reductase activity (in words) [1]: stimulatory

CCCCCCCCCCCCCC(=O)SCCNC(=O)CCNC(=O)[C@H](O)C(C)(C)COP(=O)(O)OP(=O)(O)OC[C@H]1O[C@@H](n2cnc3c(N)ncnc32)[C@H](O)[C@@H]1OP(=O)(O)O [14:0]
Wax synthase Activity, Acyl Group [2]: 95 pmol/min | Wax synthase Activity, Alcohol Group [2]: 145 pmol/min

CCCCCCCCCCCCCCCC(=O)SCCNC(=O)CCNC(=O)[C@H](O)C(C)(C)COP(=O)(O)OP(=O)(O)OC[C@H]1O[C@@H](n2cnc3c(N)ncnc32)[C@H](O)[C@@H]1OP(=O)(O)O [16:0, palmitoyl-CoA]
IC50 [3]: 5 µM

CCCCCCCCCCCCCCCCCC(=O)SCCNC(=O)CCNC(=O)[C@H](O)C(C)(C)COP(=O)(O)OP(=O)(O)OC[C@H]1O[C@@H](n2cnc3c(N)ncnc32)[C@H](O)[C@@H]1OP(=O)(O)O [18:0]
Reductase Activity, Acyl-CoA (10 μM) [1]: 1.4 pmol/min/µL | Wax synthase Activity, Acyl Group [2]: 51 pmol/min | Wax synthase Activity, Alcohol Group [2]: 56 pmol/min

CCCCC/C=C\C/C=C\CCCCCCCC(=O)SCCNC(=O)CCNC(=O)[C@H](O)C(C)(C)COP(=O)(O)OP(=O)(O)OC[C@H]1O[C@@H](n2cnc3c(N)ncnc32)[C@H](O)[C@@H]1OP(=O)(O)O [18:2]
Wax synthase Activity, Acyl Group [2]: 7 pmol/min | Wax synthase Activity, Alcohol Group [2]: 123 pmol/min

CCCCCCCCCCCCCCCCCCCC(=O)SCCNC(=O)CCNC(=O)[C@H](O)C(C)(C)COP(=O)(O)OP(=O)(O)OC[C@H]1O[C@@H](n2cnc3c(N)ncnc32)[C@H](O)[C@@H]1OP(=O)(O)O [20:0]
Wax synthase Activity, Acyl Group [2]: 49 pmol/min | Wax synthase Activity, Alcohol Group [2]: 21 pmol/min

CCCCCCCCCCCCCCCCCCCCCC(=O)SCCNC(=O)CCNC(=O)[C@H](O)C(C)(C)COP(=O)(O)OP(=O)(O)OC[C@H]1O[C@@H](n2cnc3c(N)ncnc32)[C@H](O)[C@@H]1OP(=O)(O)O [22:0]
Wax synthase Activity, Acyl Group [2]: 46 pmol/min | Wax synthase Activity, Alcohol Group [2]: 17 pmol/min

CCCCCCCC/C=C\CCCCCCCCCCCC(=O)SCCNC(=O)CCNC(=O)[C@H](O)C(C)(C)COP(=O)(O)OP(=O)(O)OC[C@H]1O[C@@H](n2cnc3c(N)ncnc32)[C@H](O)[C@@H]1OP(=O)(O)O [22:1]
Reductase Activity, Acyl-CoA (10 μM) [1]: 1.0 pmol/min/µL | Wax synthase Activity, Acyl Group [2]: 39 pmol/min | Wax synthase Activity, Alcohol Group [2]: 41 pmol/min

NC(=O)c1ccc[n+]([C@@H]2O[C@H](COP(=O)([O-])OP(=O)(O)OC[C@H]3O[C@@H](n4cnc5c(N)ncnc54)[C@H](O)[C@@H]3O)[C@@H](O)[C@H]2O)c1 [AND+]
effect of end-products and cofactors on reductase activity (in words) [1]: marginal effects

C[C@H](CCC(=O)NCCC[N+](C)(C)CCCS(=O)(=O)[O-])[C@H]1CC[C@H]2[C@@H]3[C@H](O)C[C@@H]4C[C@H](O)CC[C@]4(C)[C@H]3C[C@H](O)[C@]12C [CHAPS, 3-[(3-cholamidopropyl)-dimethyl-ammonio]-1-propanesulfonate]
effect on the reductase enzyme (in words) ([1]; 0.3% w/v in the assay mixture): minimal effect | effect on the acyl transferase reaction (in words) [4]: completely inhibits

[Ca+2].[Cl-].[Cl-] [CaCl2]
effect of salt on reductase activity (in words) [1]: stimulate reductase activity

C/C=C/C/C=C/CCC(=O)[C@H]1O[C@H]1C(N)=O [Cerulinen]
inhibitory effect on jojoba acyl-CoA reductase activity (in words) [1]: no strong inhibitory effect

CC(C)(COP(=O)(O)OP(=O)(O)OC[C@H]1O[C@@H](n2cnc3c(N)ncnc32)[C@H](O)[C@@H]1OP(=O)(O)O)[C@@H](O)C(=O)NCCC(=O)NCCS [CoA]
effect of end-products and cofactors on reductase activity (in words) [1]: significant inhibition

O=C(O)CN(CCN(CC(=O)O)CC(=O)O)CC(=O)O [EDTA, ethylenediaminetetraacetic acid]
effect of effector on reductase activity (in words) [1]: some stimulation

[Cl-].[K+] [KC1]
effect of salt on reductase activity (in words) [1]: stimulate reductase activity

N#CS [KSCN]
effect of salt on reductase activity (in words) [1]: no stimulation or marginal stimulation

[Cl-].[Li+] [LiC1]
effect of salt on reductase activity (in words) [1]: stimulate reductase activity

CC[C@H](C)C(=O)O[C@H]1C[C@@H](C)C=C2C=C[C@H](C)[C@H](CC[C@@H]3C[C@@H](O)CC(=O)O3)[C@H]21 [Mevinolin]
concentration at which an effect on jojoba acyl-CoA reductase is seen ([1]; only has an effect at relatively high concentrations): 100 µM

[Cl-].[Cl-].[Mg+2] [MgCl2]
effect of salt on reductase activity (in words) [1]: stimulate reductase activity

CCCCCCCCCCCCCCCC(=O)SCCNC(C)=O [N-acetyl-S-palmitoyl cysteamine]
wax synthase activity towards acyl-thioester substrates (in words) [2, 6]: no activity was detectable

CCN1C(=O)C=CC1=O [N-ethylmaleimide]
inhibitory effect on jojoba acyl-CoA reductase activity (in words) [1]: strongly inhibit

NC(=O)C1=CN([C@@H]2O[C@H](COP(=O)(O)OP(=O)(O)OC[C@H]3O[C@@H](n4cnc5c(N)ncnc54)[C@H](O)[C@@H]3O)[C@@H](O)[C@H]2O)C=CC1 [NADH]
effect of end-products and cofactors on reductase activity (in words) [1]: marginal effects

NC(=O)c1ccc[n+]([C@@H]2O[C@H](COP(=O)([O-])OP(=O)(O)OC[C@H]3O[C@@H](n4cnc5c(N)ncnc54)[C@H](OP(=O)(O)O)[C@@H]3O)[C@@H](O)[C@H]2O)c1 [NADP+]
effect of end-products and cofactors on reductase activity (in words) [1]: significant inhibition

O=S(=O)([O-])[O-].[Na+].[Na+] [Na2 SO4]
effect of salt on reductase activity (in words) [1]: stimulate reductase activity

[Cl-].[Na+] [NaCl]
stimulation of reductase activity ([1]; addition of 0.5M salt, 500000 µM): Up to 15 fold

NC(=O)CI [iodoacetamide]
inhibitory effect on jojoba acyl-CoA reductase activity (in words) [1]: no effect

O=C(O)c1cc[c]([Hg][OH])cc1 [para-hydroxymercuribenzoate]
inhibitory effect on jojoba acyl-CoA reductase activity (in words) [1]: some inhibitory effect

bovine serum albumin [BSA]
effect on reductase activity (in words) ([1]; concentrations at and above 0.2 mg/ml): inhibition of activity | effect on reductase activity (in words) ([1]; low concentrations, 0.02-0.075 mg/ml): small stimulation

palmitoyl-ACP [16:0]
activity as substrate of the reductase (in words) ([1]; substrate specificity experiment, 10 uM substrate): high | wax synthase activity relative to acyl-CoA [2, 6]: ~ 10 % of that with acyl-CoA

stearoyl-ACP
activity as substrate of the reductase (in words) [5]: shown to have activity as a substrate
